Patent publication US6225478A, “Iridoid derivatives and neovascularization inhibitors containing the same as active ingredient” (Tsumura & Co., priority 1999, dated 2001)

System: human umbilical-vein endothelial cells (HUVEC)
Assay: Tube Formation Assay (TFA) Test, HUVEC in collagen gel
Type: cell-based
Conditions: Homo sapiens, HUVEC, Tables 75-83; 0.32 mM sample solution; method as for Compounds 1 through 60; read-out: TFA Inhibition rate (%)
How it was run: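 Inhibition rate (%) of tube formation is computed from tube lengths against control (+) and control (-), measured after 20 h at 37 °C in M-199 with 20% FCS, 30 ng/ml b-FGF and 0.1 μM PMA. Samples were applied to HUVEC on collagen and covered by a second collagen layer (double-layer gel).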

Row | SMILES | inhibition at 320 µM (stock) [%]
1 | COC(=O)C1=CO[C@@H](OC(=O)Nc2ccc(Br)cc2)[C@H]2[C@@H]1CC[C@@H]2C [I-259] | 2.9
2 | COC(=O)C1=CO[C@@H](OC(=O)NCCCCl)[C@@H]2C(C)=CC[C@H]12 [I-142] | 3.7
3 | COC(=O)C1=CO[C@@H](OC(=O)NCC2CCCCC2)[C@H]2[C@@H]1CC[C@@H]2C [I-191] | 6
4 | CNC(=O)O[C@@H]1OC=C(C(=O)NCc2nc3ccccc3[nH]2)[C@H]2C[C@@H]3O[C@]3(C)[C@@H]12 [I-63] | 41.7
5 | COC(=O)C1=CO[C@@H](OC(=O)NC2CCN(Cc3ccccc3)CC2)[C@H]2[C@@H]1CC[C@@H]2C [I-192] | 4.5
6 | COC(=O)C1=CO[C@@H](OC(=O)NCc2ccc(Br)cc2)[C@H]2[C@@H]1CC[C@@H]2C [I-245] | 6.3
7 | COC(=O)C1=CO[C@@H](OC(=O)N2CCC2)[C@@H]2C(C)=CC[C@H]12 [I-148] | 5.1
8 | COC(=O)C1=CO[C@@H](OC(=O)N(C)CC2OCCO2)[C@H]2[C@@H]1CC[C@@H]2C [I-198] | 2.9
9 | CCOC(=O)c1ccc(NC(=O)O[C@@H]2OC=C(C(=O)OC)[C@H]3CC[C@H](C)[C@@H]23)cc1 [I-268] | 7.6
10 | COC(=O)C1=CO[C@@H](OC(=O)N2CCOCC2)[C@H]2[C@@H]1CC[C@@H]2C [I-188] | 10.2
11 | COC(=O)C1=CO[C@@H](OC(=O)NCc2cccc(C(F)(F)F)c2)[C@@H]2C(C)=CC[C@H]12 [I-128] | 9.4
12 | COC(=O)C1=CO[C@@H](OC(=O)N2CC=C(c3ccccc3)CC2)[C@H]2[C@@H]1CC[C@@H]2C [I-242] | 4.8
13 | COC(=O)C1=CO[C@@H](OC(=O)Nc2cccc(C(C)=O)c2)[C@@H]2C(C)=CC[C@H]12 [I-171] | 5.8
14 | CCCCCCC1CC[C@@H]2C(C(=O)OC)=COC[C@H]12 (some centres unmarked) [I-294] | 7.8
15 | COC(=O)C1=CO[C@@H](OC(=O)N(C)CC2OCCO2)[C@@H]2C(C)=CC[C@H]12 [I-93] | 2.4
16 | CCC(CC)NC(=O)O[C@@H]1OC=C(C(=O)OC)[C@H]2CC=C(C)[C@@H]12 [I-102] | 8.2
17 | COC(=O)C1=COC[C@H]2[C@@H]1C[C@@H]1O[C@@]12CO [I-289] | 17.1
18 | CNC(=O)OCC1=CC[C@@H]2C(C(=O)OC)=COC[C@H]12 [I-295] | 7.9
19 | COC(=O)C1=CO[C@@H](OC(=O)NCCc2ccccc2)[C@@H]2C(C)=CC[C@H]12 [I-119] | 4.2
20 | COC(=O)C1=CO[C@@H](OC(=O)Nc2ccc(OC(F)(F)F)cc2)[C@H]2[C@@H]1CC[C@@H]2C [I-266] | 4.9
21 | COC(=O)C1=CO[C@@H](OC(=O)Nc2ccc(Cl)cc2C(F)(F)F)[C@H]2[C@@H]1CC[C@@H]2C [I-265] | 3.3
22 | COC(=O)C1=CO[C@@H](OC(=O)NCC2CC2)[C@@H]2C(C)=CC[C@H]12 [I-139] | 25.6
23 | COC(=O)C1=CO[C@@H](OC(=O)NCc2ccc(Cl)cc2)[C@H]2[C@@H]1CC[C@@H]2C [I-214] | 5.7
24 | COC(=O)C1=CO[C@@H](OC(=O)NCc2ccccc2F)[C@@H]2C(C)=CC[C@H]12 [I-126] | 4
25 | COC(=O)C1=CO[C@@H](OC(=O)N2CC=CCC2)[C@H]2[C@@H]1CC[C@@H]2C [I-194] | 3
26 | COC(=O)C1=CO[C@@H](OC(=O)Nc2ccc(C)cc2)[C@@H]2C(C)=CC[C@H]12 [I-169] | 13.7
27 | COC(=O)C1=CO[C@@H](OC(=O)NCCCl)[C@H]2[C@@H]1CC[C@@H]2C [I-258] | 3.8
28 | COC(=O)C1=CO[C@@H](OC(=O)NCCc2ccccc2)[C@H]2[C@@H]1CC[C@@H]2C [I-224] | 10.5

System: HUFEC
Assay: Cell Migration Assay (CMA) Test, inhibitory rate with control (-) correction
Type: cell-based, human
Conditions: Homo sapiens, 24 h, 125 μl of 0.32 mM sample solution in 4.0 ml medium, 80% or more = remarkable
How it was run: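 Confluent HUFEC monolayers were scratch-wounded, then cultured 24 h at 37 °C, 5% CO2 in M199 (2+) medium with compound added as 125 μl of a 0.32 mM solution (3.2% DMSO) per 4 ml. Giemsa-stained cells migrating into 1 mm×1 mm blocks counted; inhibition % calculated relative to control (+) and control (−) wells.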

Row | SMILES | inhibition at 320 µM (stock) [%]
29 | COC(=O)C1=CO[C@@H](OC(=O)Nc2ccc(Br)cc2)[C@H]2[C@@H]1CC[C@@H]2C [I-259] | 5
30 | COC(=O)C1=CO[C@@H](OC(=O)NCCCCl)[C@@H]2C(C)=CC[C@H]12 [I-142] | 9.8
31 | COC(=O)C1=CO[C@@H](OC(=O)NCC2CCCCC2)[C@H]2[C@@H]1CC[C@@H]2C [I-191] | 8
32 | CNC(=O)O[C@@H]1OC=C(C(=O)NCc2nc3ccccc3[nH]2)[C@H]2C[C@@H]3O[C@]3(C)[C@@H]12 [I-63] | 14.2
33 | COC(=O)C1=CO[C@@H](OC(=O)NC2CCN(Cc3ccccc3)CC2)[C@H]2[C@@H]1CC[C@@H]2C [I-192] | 7.8
34 | COC(=O)C1=CO[C@@H](OC(=O)NCc2ccc(Br)cc2)[C@H]2[C@@H]1CC[C@@H]2C [I-245] | 27.3
35 | COC(=O)C1=CO[C@@H](OC(=O)N2CCC2)[C@@H]2C(C)=CC[C@H]12 [I-148] | 3.4
36 | COC(=O)C1=CO[C@@H](OC(=O)N(C)CC2OCCO2)[C@H]2[C@@H]1CC[C@@H]2C [I-198] | 7.9
37 | CCOC(=O)c1ccc(NC(=O)O[C@@H]2OC=C(C(=O)OC)[C@H]3CC[C@H](C)[C@@H]23)cc1 [I-268] | 8.4
38 | COC(=O)C1=CO[C@@H](OC(=O)N2CCOCC2)[C@H]2[C@@H]1CC[C@@H]2C [I-188] | 7.1
39 | COC(=O)C1=CO[C@@H](OC(=O)NCc2cccc(C(F)(F)F)c2)[C@@H]2C(C)=CC[C@H]12 [I-128] | 8.7
40 | COC(=O)C1=CO[C@@H](OC(=O)N2CC=C(c3ccccc3)CC2)[C@H]2[C@@H]1CC[C@@H]2C [I-242] | 5.1
41 | COC(=O)C1=CO[C@@H](OC(=O)Nc2cccc(C(C)=O)c2)[C@@H]2C(C)=CC[C@H]12 [I-171] | 3
42 | CCCCCCC1CC[C@@H]2C(C(=O)OC)=COC[C@H]12 (some centres unmarked) [I-294] | 4.5
43 | COC(=O)C1=CO[C@@H](OC(=O)N(C)CC2OCCO2)[C@@H]2C(C)=CC[C@H]12 [I-93] | 5.8
44 | CCC(CC)NC(=O)O[C@@H]1OC=C(C(=O)OC)[C@H]2CC=C(C)[C@@H]12 [I-102] | 15.6
45 | COC(=O)C1=COC[C@H]2[C@@H]1C[C@@H]1O[C@@]12CO [I-289] | 9.4
46 | CNC(=O)OCC1=CC[C@@H]2C(C(=O)OC)=COC[C@H]12 [I-295] | 5.6
47 | COC(=O)C1=CO[C@@H](OC(=O)NCCc2ccccc2)[C@@H]2C(C)=CC[C@H]12 [I-119] | 18.8
48 | COC(=O)C1=CO[C@@H](OC(=O)Nc2ccc(OC(F)(F)F)cc2)[C@H]2[C@@H]1CC[C@@H]2C [I-266] | 9.4
49 | COC(=O)C1=CO[C@@H](OC(=O)Nc2ccc(Cl)cc2C(F)(F)F)[C@H]2[C@@H]1CC[C@@H]2C [I-265] | 6.3
50 | COC(=O)C1=CO[C@@H](OC(=O)NCC2CC2)[C@@H]2C(C)=CC[C@H]12 [I-139] | 9.7
51 | COC(=O)C1=CO[C@@H](OC(=O)NCc2ccc(Cl)cc2)[C@H]2[C@@H]1CC[C@@H]2C [I-214] | 11.7
52 | COC(=O)C1=CO[C@@H](OC(=O)NCc2ccccc2F)[C@@H]2C(C)=CC[C@H]12 [I-126] | 6.5
53 | COC(=O)C1=CO[C@@H](OC(=O)N2CC=CCC2)[C@H]2[C@@H]1CC[C@@H]2C [I-194] | 5.5
54 | COC(=O)C1=CO[C@@H](OC(=O)Nc2ccc(C)cc2)[C@@H]2C(C)=CC[C@H]12 [I-169] | 12.6
55 | COC(=O)C1=CO[C@@H](OC(=O)NCCCl)[C@H]2[C@@H]1CC[C@@H]2C [I-258] | 5.7
56 | COC(=O)C1=CO[C@@H](OC(=O)NCCc2ccccc2)[C@H]2[C@@H]1CC[C@@H]2C [I-224] | 15.6
